Assay results: US20100028360A1, “METHODS FOR THE MODULATION OF BRAIN PROGESTAGEN SIGNALING IN THE PREVENTION AND TREATMENT OF NEUROLOGICAL DISORDERS AND NEURODEGENERATIVE DISEASES” (priority 2008, published 2010)
Entries after “also recorded” stand apart in the source; their conditions may differ. No end group written: not given here.

What was measured:
hESC [1] = assay: hESC cell proliferation, trypan blue assay; type: cell-based, human; conditions: E2 10 nM, P4 2 μM or E2+P4, 6 d; compared to untreated control cells
Description: (§1) FIG. 1. P4 differentiates hESC into neuroectoderm. (a) hESC were grown in TESR1 media—Li in the presence of E2 (10 nM), P4 (2 μM) or E2 (10 nM)+P4 (2 μM) for 6 d and cell proliferation measured using the trypan blue assay. Results are expressed as mean±SEM, n=3 (*p<0.05, **p<0.005 compared to 6 d control). (b) Equal amounts of protein from cell lysates of hESC treated for 9 d as described above were analyzed by immunoblot using a monoclonal antibody against nestin (clone 10C2; Chemicon, Calif., USA). (c) hESC were cultured for 4 d, enzymatically lifted and placed into EB media (containing serum) and rocked gently for an additional 4 d prior to being placed in one of two neural induction medias for an additional 11 days, where P4 was either absence or present. During this transition from EB to rosettes, colony structures treated with P4 also were treated with a PR antagonist (RU-486; 20 μM) or ER antagonist (ICI 182,780) for 11 d. At 19 d, morphological observation and molecular analysis were performed. […] (ii) hESC structure in the absence of P4. (iii) PR antagonist treated rosettes (RU-486, 20 μM). (iv) ER antagonist (ICI 182,780). (d) Equal amounts of protein from cell lysates of the above structures were analyzed by immunoblot with the monoclonal antibody against human nestin.

nestin = nestin immunoblot of hESC / EB-rosette structure lysates; type: cell-based, human
Description: as §1

hESC [2] = assay: EB and neuroectodermal rosette/NPC formation from hESC, morphological observation; type: cell-based, human; conditions: neural induction media with P4, antagonist for 11 d (RU-486 20 μM); observed at 19 d
Description: as §1

[3] = tested on: Tg2576 mice carrying the Swedish AβPP mutation; conditions: aged Tg2576 transgenic mice; cited from earlier work
rat hippocampal slices = assay: extracellular field responses in CA1 of isolated hippocampal slices; type: cell-based; conditions: 50 nM
Description: FIG. 3. GnRH1 increases neuronal excitability in hippocampal slices from old rats. Typical traces from hippocampal slice cut transversely at 500 μm thickness from 37 day (A) and 19 month (B) old male rats. Orthodromic extracellular field responses were recorded in the cell body layer of the CA1. Responses were evoked by a bipolar electrode with a constant current stimuli (50 μs duration) delivered every 30 s by electrodes placed in the schaeffer collaterals. 50 nM GnRH1 was used. Mean values are shown in C., n=5 slices each for young rats and n=3 slices each for old rats. Slices from two young and two old animals were used. Superfusion of human GnRH evoked a 50% increase in the maximum amplitude of population spikes in hippocampal slices from old rats compared to controls (FIGS. 3B, C).

C[C@]12CC[C@@H]3c4ccc(O)cc4CC[C@H]3[C@@H]1CC[C@@H]2O [E2, estradiol]
decrease in the rate of hESC proliferation (hESC [1]): 16%

C[C@]12CC[C@@H]3c4ccc(O)cc4C[C@@H](CCCCCCCCC[S+]([O-])CCCC(F)(F)C(F)(F)F)[C@H]3[C@@H]1CC[C@@H]2O (stereo partly drawn) [ICI 182,780]
nestin expression in antagonist treated structures (nestin; antagonist for 11 d (RU-486 20 μM), immunoblot at 19 d): absence of nestin
EB and neuroectodermal rosette/NPC formation (hESC [2]): No rosettes were detected

CC(=O)[C@H]1CC[C@H]2[C@@H]3CCC4=CC(=O)CC[C@]4(C)[C@H]3CC[C@]12C [P4, pregn-4-ene-3,20-dione]
decrease in the rate of hESC proliferation (hESC [1]): 29%
nestin expression in hESC (nestin; hESC treated for 9 d, E2 10 nM, P4 2 μM, immunoblot): increased the expression of the neuroectodermal marker nestin; also recorded: induces nestin expression
EB and neuroectodermal rosette/NPC formation (hESC [2]): a minimum of three rosette structures

CCNC(=O)[C@@H]1CCCN1C(=O)[C@H](CCCNC(=N)N)NC(=O)[C@H](CC(C)C)NC(=O)[C@@H](CC(C)C)NC(=O)[C@H](Cc1ccc(O)cc1)NC(=O)[C@H](CO)NC(=O)[C@H](Cc1c[nH]c2ccccc12)NC(=O)[C@H](Cc1c[nH]cn1)NC(=O)[C@@H]1CCC(=O)N1 [leuprolide acetate]
Aβ deposition [3]: halts Aβ deposition
cognitive performance [3]: improves cognitive performance

GnRH1: human gonadotropin releasing hormone, superfused at 50 nM (QHWSYGLRPG; ends and bridges not checked; UniProt P01148 24-33, looked up)
increase in the maximum amplitude of population spikes compared to controls (rat hippocampal slices; hippocampal slices from old (19 month old) rats): 50%
increase in neuronal excitability compared to controls (rat hippocampal slices; hippocampal slices from young (37 day old) rats): 22%
maximum amplitude of field responses, cell body layer of CA1 (rat hippocampal slices; old rats, n=3, control 2.54±0.18 mV, p=0.05): 3.99±0.84 mV
maximum amplitude of field responses, cell body layer of CA1 (rat hippocampal slices; young rats, n=5, control 7.0±1.4 mV, p=0.548): 7.9±2.7 mV
